Results published in ChEMBL document CHEMBL1201862, “PubChem BioAssay data set” (2004).
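Assay format: 96-well plates, 48-hour exposure. Here, GI50 denotes the concentration required for 50% inhibition of growth.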 The source made the active and inactive calls. No stated cut-off is given here; in the data, active = GI50 up to about 1.1 µM and inactive = higher.

Legend:
Test in all cases: inhibition of tumour cell growth, NCI panel, 48 h
SNB-19 = tested on: SNB-19
CAKI-1 = tested on: CAKI-1
786-0 = tested on: 786-0
A549 = tested on: A549
UACC-257 = tested on: UACC-257
SN12C = tested on: SN12C
SK-MEL-28 = tested on: SK-MEL-28
TK-10 = tested on: TK-10
HOP-92 = tested on: HOP-92
NCI/ADR-RES = tested on: NCI/ADR-RES
COLO 205 = tested on: COLO 205
Hs-578T = tested on: Hs-578T
U-251 = tested on: U-251
NCI-H460 = tested on: NCI-H460
SK-OV-3 = tested on: SK-OV-3
HOP-62 = tested on: HOP-62
SR = tested on: SR
Malme-3M = tested on: Malme-3M
MCF7 = tested on: MCF7

`O=c1c2ncn(COCCCl)c2n(-c2ccccc2)c(=S)n1-c1ccccc1` was tested, and the GI50 (SNB-19) was > 100 µM (inactive), the GI50 (CAKI-1) was > 100 µM (inactive) and the GI50 (786-0) was > 100 µM (inactive). The GI50 (A549) was > 100 µM (inactive), the GI50 (UACC-257) was > 100 µM (inactive) and the GI50 (SN12C) was > 100 µM (inactive). For the same compound, the GI50 (SK-MEL-28) was > 100 µM (inactive), the GI50 (TK-10) was > 100 µM (inactive) and the GI50 (HOP-92) was > 100 µM (inactive). For the same compound, the GI50 (NCI/ADR-RES) was > 100 µM (inactive), the GI50 (COLO 205) was > 100 µM (inactive) and the GI50 (Hs-578T) was > 100 µM (inactive). For the same compound, the GI50 (U-251) was > 100 µM (inactive), the GI50 (NCI-H460) was > 100 µM (inactive) and the GI50 (SK-OV-3) was > 100 µM (inactive). For the same compound, the GI50 (HOP-62) was > 100 µM (inactive), the GI50 (SR) was > 100 µM (inactive) and the GI50 (Malme-3M) was > 100 µM (inactive). For the same compound, the GI50 (MCF7) was > 100 µM (inactive).
For `CC(C)(C)OC(=O)NCCCC(=O)NC1(c2cc3ccccc3s2)CCCCC1`, the GI50 (SNB-19) was 34.8 µM (inactive), the GI50 (CAKI-1) was 22.1 µM (inactive) and the GI50 (786-0) was 16.9 µM (inactive). For the same compound, the GI50 (A549) was 25.6 µM (inactive), the GI50 (UACC-257) was 13.6 µM (inactive) and the GI50 (SN12C) was 17.5 µM (inactive). The GI50 (SK-MEL-28) was 14.1 µM (inactive), the GI50 (TK-10) was 29 µM (inactive) and the GI50 (HOP-92) was 12.9 µM (inactive). For the same compound, the GI50 (NCI/ADR-RES) was 16.7 µM (inactive), the GI50 (COLO 205) was 13.8 µM (inactive) and the GI50 (Hs-578T) was 24.6 µM (inactive). For the same compound, the GI50 (NCI-H460) was 17 µM (inactive), the GI50 (SK-OV-3) was 29.6 µM (inactive) and the GI50 (HOP-62) was 21.4 µM (inactive). For the same compound, the GI50 (SR) was 12.6 µM (inactive), the GI50 (Malme-3M) was 16.2 µM (inactive) and the GI50 (MCF7) was 16.3 µM (inactive).
For `COC1=C(C)C(=O)c2c(c(COC(N)=O)c3n2CC(OC(C)=O)C3OC(C)=O)C1=O` (stereo not given), the GI50 (SNB-19) was 0.433 µM (active), the GI50 (CAKI-1) was < 0.01 µM (active) and the GI50 (786-0) was < 0.0116 µM (active). For the same compound, the GI50 (A549) was 0.136 µM (active), the GI50 (UACC-257) was 0.115 µM (active) and the GI50 (SN12C) was 0.0944 µM (active). The GI50 (SK-MEL-28) was 0.311 µM (active), the GI50 (TK-10) was 0.388 µM (active) and the GI50 (HOP-92) was 0.186 µM (active). For the same compound, the GI50 (NCI/ADR-RES) was 0.127 µM (active), the GI50 (COLO 205) was 0.116 µM (active) and the GI50 (Hs-578T) was 0.239 µM (active). For the same compound, the GI50 (U-251) was 0.0944 µM (active), the GI50 (NCI-H460) was < 0.01 µM (active) and the GI50 (SK-OV-3) was 0.41 µM (active). The GI50 (HOP-62) was 0.126 µM (active), the GI50 (SR) was < 0.01 µM (active) and the GI50 (Malme-3M) was 0.0493 µM (active). For the same compound, the GI50 (MCF7) was 0.0301 µM (active).
In the case of `c1ccc(COC2NCCN2Cc2ccccc2)cc1` (stereo not given), the GI50 (SNB-19) is reported as > 100 µM (inactive), the GI50 (CAKI-1) is reported as > 100 µM (inactive) and the GI50 (786-0) is reported as > 100 µM (inactive). The GI50 (A549) was > 100 µM (inactive), the GI50 (UACC-257) was 61 µM (inactive) and the GI50 (SN12C) was > 100 µM (inactive). The GI50 (SK-MEL-28) was > 100 µM (inactive), the GI50 (TK-10) was > 100 µM (inactive) and the GI50 (HOP-92) was > 100 µM (inactive). The GI50 (NCI/ADR-RES) was 84.5 µM (inactive), the GI50 (COLO 205) was > 100 µM (inactive) and the GI50 (Hs-578T) was 5.64 µM (inactive). The GI50 (U-251) was > 100 µM (inactive), the GI50 (NCI-H460) was > 100 µM (inactive) and the GI50 (SK-OV-3) was > 100 µM (inactive). For the same compound, the GI50 (HOP-62) was > 100 µM (inactive), the GI50 (SR) was > 100 µM (inactive) and the GI50 (Malme-3M) was > 100 µM (inactive). For the same compound, the GI50 (MCF7) was > 100 µM (inactive).
`O=C1CCN2C(=N1)Sc1ccccc12` was tested, and the GI50 (SNB-19) was > 100 µM (inactive), the GI50 (CAKI-1) was > 100 µM (inactive) and the GI50 (786-0) was > 100 µM (inactive). For the same compound, the GI50 (A549) was > 100 µM (inactive), the GI50 (UACC-257) was > 100 µM (inactive) and the GI50 (SN12C) was > 100 µM (inactive). For the same compound, the GI50 (SK-MEL-28) was > 100 µM (inactive), the GI50 (TK-10) was > 100 µM (inactive) and the GI50 (HOP-92) was > 100 µM (inactive). The GI50 (NCI/ADR-RES) was > 100 µM (inactive), the GI50 (COLO 205) was > 100 µM (inactive) and the GI50 (Hs-578T) was > 100 µM (inactive). For the same compound, the GI50 (U-251) was > 100 µM (inactive), the GI50 (NCI-H460) was > 100 µM (inactive) and the GI50 (SK-OV-3) was > 100 µM (inactive). For the same compound, the GI50 (HOP-62) was > 100 µM (inactive), the GI50 (SR) was > 100 µM (inactive) and the GI50 (Malme-3M) was > 100 µM (inactive). The GI50 (MCF7) was > 100 µM (inactive).
In the case of `CN(C(=O)Cc1cc(Cl)c(Cl)cc1NC(=O)CN)[C@H]1CCCC[C@@H]1N1CCCC1`, the GI50 (SNB-19) is reported as 45.8 µM (inactive), the GI50 (CAKI-1) is reported as > 100 µM (inactive) and the GI50 (786-0) is reported as 16.3 µM (inactive). The GI50 (A549) was 39.1 µM (inactive), the GI50 (UACC-257) was 18.6 µM (inactive) and the GI50 (SN12C) was 56.6 µM (inactive). For the same compound, the GI50 (TK-10) was 37.9 µM (inactive), the GI50 (HOP-92) was > 100 µM (inactive) and the GI50 (NCI/ADR-RES) was > 100 µM (inactive). The GI50 (Hs-578T) was 23.1 µM (inactive), the GI50 (U-251) was 17.8 µM (inactive) and the GI50 (NCI-H460) was 29.6 µM (inactive). For the same compound, the GI50 (SK-OV-3) was > 100 µM (inactive), the GI50 (HOP-62) was > 100 µM (inactive) and the GI50 (SR) was 29 µM (inactive). The GI50 (Malme-3M) was 20.8 µM (inactive) and the GI50 (MCF7) was 28.6 µM (inactive).
`O=Cc1c2c(cc3c1CC1(C3)Cc3cc4c(c(C=O)c3C1)CCC4)CCC2` was tested, and the GI50 (786-0) was > 100 µM (inactive), the GI50 (A549) was 30.3 µM (inactive) and the GI50 (UACC-257) was 34.8 µM (inactive). The GI50 (SN12C) was 65.9 µM (inactive), the GI50 (TK-10) was 32.5 µM (inactive) and the GI50 (HOP-92) was 23 µM (inactive). For the same compound, the GI50 (NCI/ADR-RES) was 68.2 µM (inactive), the GI50 (COLO 205) was 27.2 µM (inactive) and the GI50 (Hs-578T) was 23.1 µM (inactive). For the same compound, the GI50 (U-251) was 16.3 µM (inactive), the GI50 (SK-OV-3) was 36.1 µM (inactive) and the GI50 (HOP-62) was 17.1 µM (inactive). The GI50 (SR) was 35.1 µM (inactive), the GI50 (Malme-3M) was 27.5 µM (inactive) and the GI50 (MCF7) was 36 µM (inactive).
For `CC(C)C(OC(=O)c1ccc(NCC2=CC(=O)C=CC2=O)cc1)C(C)C`, the GI50 (SNB-19) was 18.3 µM (inactive), the GI50 (CAKI-1) was 1.4 µM (inactive) and the GI50 (786-0) was 10.4 µM (inactive). The GI50 (A549) was 25.2 µM (inactive), the GI50 (UACC-257) was 7.76 µM (inactive) and the GI50 (SN12C) was 9.16 µM (inactive). The GI50 (SK-MEL-28) was 4.05 µM (inactive), the GI50 (TK-10) was 4.25 µM (inactive) and the GI50 (HOP-92) was 1.79 µM (inactive). For the same compound, the GI50 (NCI/ADR-RES) was 4.3 µM (inactive), the GI50 (COLO 205) was 2.79 µM (inactive) and the GI50 (Hs-578T) was 3.68 µM (inactive). For the same compound, the GI50 (U-251) was 3.32 µM (inactive), the GI50 (NCI-H460) was 14.6 µM (inactive) and the GI50 (SK-OV-3) was 13.8 µM (inactive). For the same compound, the GI50 (HOP-62) was 18.3 µM (inactive), the GI50 (SR) was 3.23 µM (inactive) and the GI50 (Malme-3M) was 8.89 µM (inactive). The GI50 (MCF7) was 7.93 µM (inactive).
